The test system of assay [1] is CD3+ T cells from MAIDS and control mice. In words: TCR/CD3 stimulated proliferation of isolated T cells, [3H]-thymidine incorporation. To be noted: median, read-out: Inhibition of proliferation by 8-CPT-cAMP (IC50). The class given is cell-based, mouse. The protocol: TCR/CD3 stimulated T cell proliferation was assessed with isolated T cells from MAIDS mice (A) and uninfected control mice (B). The effect of increasing concentrations of cAMP agonist (8-CPT-cAMP) on TCR/CD3 stimulated proliferation of CD3+ T cells isolated from MAIDS (open circles, dotted line) and control mice (filled circles and solid line) was examined separately in the same experiments (C). Mean values of triplicate determinations±SD are shown. See Table 4 for summarised data (n=11). Note: Scaling differs in A and B, whereas in C the TCR/CD3 induced proliferation in the absence of cAMP agonist is normalized to 100% for both MAIDS and control T cells;
Activation was achieved by subsequent addition of monodisperse magnetic beads coated with sheep anti-mouse IgG (Dynal, cat. no. 110.02) at a cell:bead ratio of 1:1 followed by addition of anti-CD3 (clone 2C11) at a final dilution of 4 μg/ml for the experiments shown. […] 8-CPT-cAMP was from Sigma (St. Louis, Mo.) and Sp- and Rp-8-Br-cAMPS were from BioLog Life Science Company (Bremen, Germany) and were all dissolved to concentrations of 4 to 10 mM in PBS and concentrations calculated using the extinction coefficients given by the manufacturer.

The target in assay [2] is T1, COX-1 (Bos taurus, UniProt O62664).
T1 construct: IC50 values for NSAID's in intact cell on COX-1; endogenous in cells; host or cells: bovine endothelial cells
T1 sequence (O62664 25-600): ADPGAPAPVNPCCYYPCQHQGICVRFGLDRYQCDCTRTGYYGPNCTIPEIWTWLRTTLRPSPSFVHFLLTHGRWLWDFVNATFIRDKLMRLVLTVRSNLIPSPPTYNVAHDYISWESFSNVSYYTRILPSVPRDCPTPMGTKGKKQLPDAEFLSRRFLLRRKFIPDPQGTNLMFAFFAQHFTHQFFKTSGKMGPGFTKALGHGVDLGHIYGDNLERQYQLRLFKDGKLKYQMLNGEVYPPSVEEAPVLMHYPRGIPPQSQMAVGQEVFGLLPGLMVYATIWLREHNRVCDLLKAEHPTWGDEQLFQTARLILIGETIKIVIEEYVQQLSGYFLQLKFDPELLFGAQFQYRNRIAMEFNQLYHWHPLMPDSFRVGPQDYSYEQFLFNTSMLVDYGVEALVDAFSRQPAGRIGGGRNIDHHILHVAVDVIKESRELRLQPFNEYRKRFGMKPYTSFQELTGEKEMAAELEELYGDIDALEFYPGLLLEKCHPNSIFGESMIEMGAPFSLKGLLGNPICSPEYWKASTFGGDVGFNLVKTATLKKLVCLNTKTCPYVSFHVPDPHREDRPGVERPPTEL

The target in assay [3] is T2, COX-2 (Mus musculus, UniProt Q05769).
T2 construct: endogenous in cells
T2 sequence (Q05769 18-604): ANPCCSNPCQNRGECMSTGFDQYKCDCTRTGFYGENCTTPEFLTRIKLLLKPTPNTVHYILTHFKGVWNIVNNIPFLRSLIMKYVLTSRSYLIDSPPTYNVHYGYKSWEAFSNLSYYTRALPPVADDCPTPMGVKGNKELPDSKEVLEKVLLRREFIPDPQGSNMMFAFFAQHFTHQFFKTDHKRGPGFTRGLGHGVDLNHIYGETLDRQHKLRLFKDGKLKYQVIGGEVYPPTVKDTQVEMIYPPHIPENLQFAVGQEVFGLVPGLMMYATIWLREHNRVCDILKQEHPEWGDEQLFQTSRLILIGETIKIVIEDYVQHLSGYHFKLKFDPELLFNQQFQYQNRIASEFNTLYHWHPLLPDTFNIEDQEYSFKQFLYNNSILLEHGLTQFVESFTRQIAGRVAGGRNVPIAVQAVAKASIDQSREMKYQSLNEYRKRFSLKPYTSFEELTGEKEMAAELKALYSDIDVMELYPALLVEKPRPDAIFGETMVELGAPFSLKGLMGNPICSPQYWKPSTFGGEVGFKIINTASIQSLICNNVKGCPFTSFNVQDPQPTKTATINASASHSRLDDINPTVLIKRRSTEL
As to conditions: cited from earlier work; for IC50: read-out: COX-2 IC50.

The target in assay [4] is COX-1 (Cavia porcellus, UniProt H0V9X9). As to conditions: read-out: COX-1 IC50; guinea pig macrophage model; Engelhart et al. 1995; cited from earlier work.
COX-1 (Cavia porcellus, UniProt H0V9X9), sequence (H0V9X9 entry or part of it): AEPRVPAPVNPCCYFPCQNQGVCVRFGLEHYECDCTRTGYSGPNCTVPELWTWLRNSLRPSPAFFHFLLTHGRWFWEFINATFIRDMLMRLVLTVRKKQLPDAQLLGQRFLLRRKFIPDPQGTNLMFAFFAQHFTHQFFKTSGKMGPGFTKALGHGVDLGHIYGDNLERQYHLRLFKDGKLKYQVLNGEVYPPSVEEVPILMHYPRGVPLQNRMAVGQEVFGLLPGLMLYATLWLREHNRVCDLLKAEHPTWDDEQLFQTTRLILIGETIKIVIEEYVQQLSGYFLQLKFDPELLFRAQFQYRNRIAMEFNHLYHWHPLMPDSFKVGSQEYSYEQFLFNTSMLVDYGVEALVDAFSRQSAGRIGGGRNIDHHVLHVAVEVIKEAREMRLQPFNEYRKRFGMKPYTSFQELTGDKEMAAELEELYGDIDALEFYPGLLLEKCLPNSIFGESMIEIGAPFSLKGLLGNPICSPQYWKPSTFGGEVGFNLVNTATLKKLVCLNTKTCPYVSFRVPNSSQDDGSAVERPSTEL
In assay [5] the target is T3, COX-2 (Homo sapiens, UniProt P35354).
T3 sequence (P35354 18-604): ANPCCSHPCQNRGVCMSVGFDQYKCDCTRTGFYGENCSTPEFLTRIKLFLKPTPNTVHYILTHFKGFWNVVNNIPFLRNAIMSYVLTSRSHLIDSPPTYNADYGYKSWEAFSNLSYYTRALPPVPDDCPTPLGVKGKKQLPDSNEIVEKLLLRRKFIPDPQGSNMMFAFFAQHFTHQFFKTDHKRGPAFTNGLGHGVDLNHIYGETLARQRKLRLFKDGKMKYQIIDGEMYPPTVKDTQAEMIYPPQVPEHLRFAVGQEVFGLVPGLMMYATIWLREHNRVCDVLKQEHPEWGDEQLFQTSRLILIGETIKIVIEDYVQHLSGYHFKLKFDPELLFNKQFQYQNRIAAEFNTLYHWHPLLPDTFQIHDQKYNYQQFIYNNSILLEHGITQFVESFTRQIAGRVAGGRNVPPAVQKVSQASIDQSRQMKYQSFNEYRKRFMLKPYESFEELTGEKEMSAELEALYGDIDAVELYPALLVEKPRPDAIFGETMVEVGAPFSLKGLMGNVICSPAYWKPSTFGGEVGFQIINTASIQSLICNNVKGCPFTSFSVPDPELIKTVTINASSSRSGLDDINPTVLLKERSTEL
To be noted: read-out: COX-2 IC50, cited from earlier work.

The mark [6] stands for this setting: intact cell, bovine endothelial cells; Taketo 1998; read-out: COX-1 IC50; cited from earlier work.
[7] abbreviates: intact cell, stimulated macrophages, Taketo 1998.
Where [8] appears, read: read-out: COX-1 IC50; intact cell, bovine endothelial cells; Taketo 1998; cited from earlier work.

Read-outs that look alike come from different tables or passages of the source.

For the compound `Nc1ncnc2c1nc(Sc1ccc(Cl)cc1)n2[C@@H]1O[C@@H]2COP(=O)(O)O[C@H]2[C@H]1O` [8-CPT-cAMP], the IC50 in assay [1] (MAIDS mice, n = 5) stood at 220 nM; in assay [1] (control mice, n = 4), 400 nM.
For the compound `CC(=O)Nc1ccc(O)cc1` [Acetaminophen], the IC50 in assay [2] (setting [6]) was 2700 nM.
For the compound `CN1OCC/C(=C\c2cc(C(C)(C)C)c(O)c(C(C)(C)C)c2)C1=O` [BF 389], the IC50 was 150 nM in assay [2] (setting [6]) and 30 nM in assay [3] (setting [7]). The “COX-2 selectivity COX-1/COX-2” value in assay [3] (ratio of IC50, intact cells) is 5.
Consider `NC1=NN(c2cccc(C(F)(F)F)c2)CC1` [BW 755C], for which, in assay [2] (setting [8]), the IC50 is 650 nM.
Turning to `CC(C(=O)O)c1ccc2c(c1)[nH]c1ccc(Cl)cc12` (centres unmarked) [Carprofen], in assay [2] (setting [8]), the IC50 was 3000 nM. Besides, in assay [3], the “COX-2 selectivity COX-1/COX-2” value is listed as 1 and the IC50 was 3000 nM.
Regarding `O=C(O)Cc1ccccc1Nc1c(Cl)cccc1Cl` [Diclofenac], in assay [4], the IC50 was 0.855 nM.
As for `CCc1cccc2c3c([nH]c12)C(CC)(CC(=O)O)OCC3` (centres unmarked) [Etodolac], the IC50 in assay [5] was 60000 nM.
Regarding `CC(C(=O)O)c1ccc(-c2ccccc2)c(F)c1` (centres unmarked) [Flubiprofen], in assay [2] (setting [6]), the IC50 was 20 nM.
Turning to `COc1ccc2cc([C@H](C)C(=O)O)ccc2c1` [Naproxen], in assay [3], the IC50 was 1300 nM.
In the case of `CCCCC1C(=O)N(c2ccccc2)N(c2ccccc2)C1=O` [Phenylbutazone], the IC50 in assay [5] (recombinant human PGH synthesis, Laneuvill et al. 1994) was greater than 100000 nM.
Consider `CN1C(C(=O)Nc2ccccn2)=C(O)c2ccccc2S1(=O)=O` [Piroxicam], for which the IC50 in assay [4] is 5.27 nM.
As to `O=C([O-])c1ccccc1O.[Na+]` [Sodium salicylate], the IC50 is 35000 nM in assay [2] (setting [6]) and 100000 nM in assay [3] (setting [7]). Also, the “COX-2 selectivity COX-1/COX-2” value in assay [3] (ratio of IC50, intact cells) is 0.35.
Turning to `NC(=O)N1C(=O)/C(=C(\O)c2cccs2)c2cc(Cl)ccc21` [Teridep], the IC50 in assay [4] was 393 nM.
Consider `Cc1c(Cl)cccc1Nc1ccccc1C(=O)O` [Tolfenamic acid], for which the IC50 was 0.3 nM in assay [2] (setting [6]) and 5 nM in assay [3] (setting [7]). The “COX-2 selectivity COX-1/COX-2” value in assay [3] (ratio of IC50, intact cells) was 0.06.

These data come from US7790738B2, “Methods of treating and preventing AIDS using of COX-2 inhibitors” (Lauras AS, priority 2000, dated 2010).
